In the SangsterLogP compilation one finds logP data, which are given here for 43 molecules.

Series [1] is described as follows: method code SF-AS, from DOI: 10.1016/s0021-9673(00)94589-8, PMID: 3356765.

What is called logP is the decadic logarithm of the partition coefficient of the neutral form, usually between octanol and water. Low values mean a more hydrophilic compound, high ones a more lipophilic compound.

On to `CCOc1ccc(NC(=O)OCCC#N)cc1OCC`, for which the logP in series [1] was found to be 2.13.
In the case of `C=CCOC(=O)Nc1ccc(OCC)c(OCC)c1`, the logP came out at 2.74.
In the case of `COC(=O)Nc1cccc(C)c1`, the logP in series [1] was 2.22.
In the case of `COC(=O)Nc1ccc(OC)cc1`, the logP was 1.77.
On the same count and under the same terms, in the case of `COC(=O)Nc1cccc(Br)c1` it was 2.71.
The molecule `CCc1ccc(NC(=O)OC)cc1` showed a logP in series [1] of 2.72.
`CCOC(=O)Nc1ccc(OCC)c(OCC)c1`: the logP turned out to be 2.58.
Consider `COC(=O)Nc1ccc(C)cc1`, for which the logP in series [1] amounted to 2.27.
As to `COC(=O)Nc1ccccc1I`, the logP came to 2.36.
Turning to `CCc1cccc(NC(=O)OC)c1`, the log partition coefficient (logP) in series [1] was 2.72.
On the same count and under the same terms, in the case of `CCCCc1ccc(NC(=O)OC)cc1` it was 3.68.
Turning to `COC(=O)Nc1ccc([N+](=O)[O-])cc1`, the logP was 1.98.
On the same count and under the same terms, in the case of `COC(=O)Nc1cccc(Cl)c1` it was 2.59; in that of `COC(=O)Nc1cccc(F)c1`, 2.17.
On the same count and under the same terms, in the case of `CCOc1ccc(NC(=O)OC(CBr)CBr)cc1OCC` it was 3.39.
In series [1], `COC(=O)Nc1cccc([N+](=O)[O-])c1` returned a logP of 1.95.
Still for that read-out and setting: the same measure for `COC(=O)Nc1ccccc1Br`: 2.25.
`CCOc1ccc(NC(=O)OC(C)C)cc1OCC` displayed a logP in series [1] of 2.82.
`CCOc1ccc(NC(=O)OCc2ccccc2)cc1OCC` displayed a logP of 3.32.
Same read-out and setting: in the case of `CCCCOC(=O)Nc1ccc(OCC)c(OCC)c1` it was 3.35.
In series [1], `COC(=O)Nc1ccccc1C(F)(F)F` yielded a logP of 2.09.
`CCOc1cccc(NC(=O)OC)c1`: the logP turned out to be 2.28.
The same measure, in the same setting: the same measure for `COC(=O)Nc1ccc(F)cc1`: 2.02; for `CCOc1ccc(NC(=O)OC)cc1OCC`: 2.2.
The molecule `COC(=O)Nc1ccccc1[N+](=O)[O-]` had a logP in series [1] of 2.07.
As for `COC(=O)Nc1ccccc1F`, the logP in series [1] came out at 1.66.
`COC(=O)Nc1ccccc1Cl`: the logP worked out at 2.19.
Turning to `CCOc1ccc(NC(=O)OC2CCCC2)cc1OCC`, the logP was found to be 3.41.
On the same count and under the same terms, in the case of `COC(=O)Nc1ccc(Cl)cc1` it was 2.52.
Consider `COC(=O)Nc1cccc(C#N)c1`, for which the logP in series [1] amounted to 1.77.
On the same count and under the same terms, the same measure for `COC(=O)Nc1ccccc1C`: 1.69; for `CCOc1ccc(NC(=O)OC)cc1`: 2.11.
Still for that read-out and setting: in the case of `COC(=O)Nc1cccc(OC)c1` it was 1.92.
Consider `COC(=O)Nc1ccc(C#N)cc1`, for which the logP stood at 1.67.
On the same count and under the same terms, in the case of `CCOc1ccc(NC(=O)OCCOC)cc1OCC` it was 2.22.
Molecule `C#CCOC(=O)Nc1ccc(OCC)c(OCC)c1` registered a logP in series [1] of 2.68.
In turn, `CCOc1ccc(NC(=O)OCC(C)C)cc1OCC` came in with a logP of 3.33.
On to `COC(=O)Nc1ccccc1OC`, for which the logP in series [1] worked out at 1.84.
The same measure, in the same setting: the same measure for `COC(=O)Nc1cccc(C(C)=O)c1`: 1.63.
Molecule `COC(=O)Nc1cccc(I)c1` yielded a logP of 2.88.
`COC(=O)Nc1cccc(C(F)(F)F)c1`: in series [1], the logP was 2.74.
The same measure, in the same setting: the same measure for `CCOc1ccccc1NC(=O)OC`: 2.4.
`CCCOC(=O)Nc1ccc(OCC)c(OCC)c1` came in with a logP of 2.97.
